Data reported in patent US20060228297A1, “Thorium-227 for use in radiotherapy of soft tissue disease” (priority 2003, published 2006).

Legend:
[1] = then concentrated in the skeleton or excreted via intestinal and renal routes; cited from earlier work
[2] = test system: patients with breast or prostate cancer; experiment: Phase I study of ^223Ra, single doses, neutrophil cell fractions (Example 8); type: in vivo, humans; conditions: for Days to nadir (neutrophil cell fraction) / ˜% of baseline at nadir (neutrophil cell fraction): humans
Text: In a phase I study in patients with breast or prostate cancer, dose levels of 37, 74, 130, 170 and 200 kBq/kg of ^223Ra were given as single doses. Neutrophil cell fractions were monitored as a sensitive measure of haematological toxicity.

[223Ra] [^223Ra, radium-223]
Blood clearance [1]: very rapidly
Dose that can be administered and tolerated ([2]; human subjects): at least 200 kBq/kg
Days to nadir (neutrophil cell fraction) ([2]; 37 kBq/kg single dose): 14 days
˜% of baseline at nadir (neutrophil cell fraction) ([2]; 37 kBq/kg single dose): ~60%
Days to nadir (neutrophil cell fraction) ([2]; 74 kBq/kg single dose): 14 days
˜% of baseline at nadir (neutrophil cell fraction) ([2]; 74 kBq/kg single dose): ~60%
Days to nadir (neutrophil cell fraction) ([2]; 130 kBq/kg single dose): 28 days
˜% of baseline at nadir (neutrophil cell fraction) ([2]; 130 kBq/kg single dose): ~50%
Days to nadir (neutrophil cell fraction) ([2]; 170 kBq/kg single dose): 21 days
˜% of baseline at nadir (neutrophil cell fraction) ([2]; 170 kBq/kg single dose): ~40%
Days to nadir (neutrophil cell fraction) ([2]; 200 kBq/kg single dose): 21 days
˜% of baseline at nadir (neutrophil cell fraction) ([2]; 200 kBq/kg single dose): ~30%
